This note sets out measurements from US4588587A, “Method of treatment to inhibit metastasis” (Pennsylvania Hospital, priority 1983, dated 1986).

This assay has as its system T241 sarcoma cells. In words: Lung and mediastinal tumor colonization after intravenous injection of T241 sarcoma cells. The assay is classed as in vivo, mice. As to the method:
Sarcoma T241 (12), a dimethylbenzanthracene-induced tumor originally derived from a C57BL/6 mouse, was maintained as ascitic tumor in syngeneic C57BL/6 mice or B6AF1 compatible hybrids (Jackson Laboratory, Bar Harbor, Me.). The capacity of the cells of this tumor to induce platelet aggregation and coagulation was assayed in a conventional manner. […] The tumor cells, however, did display a moderate procoagulant activity as reflected by a shortened recalcified clotting time. The addition of 10^6 T241 cells to syngeneic citrated plasma reduced the clotting time to between 1/3 and 1/2 control levels. Another known property of these cells is the capacity to degrade type IV collagen.
Lung tumor colonies were induced by the intravenous injection of T241 sarcoma cells. One week-old ascitic tumor cells were separated by centrifugation (100 g for 10 min) at 4° C., washed twice with Hanks' solution and suspended in the same medium (125,000-250,000 cells per ml). The suspension contained monodispersed cells of high viability (95%). Two tenths of one ml of the suspension containing 25,000 or 50,000 cells were injected intravenously into male or female C57BL/6 mice (about 25 g), and into B6AF1 mice (25-30 g), respectively, the animals housed under identical conditions of temperature, photoperiodicity, and feeding, were killed 20 days later and the number of metastases counted with a Bausch & Lomb dissecting microscope.
Two tenths of one ml of extract or semipurified fractions (100-400 ug of protein) were injected intravenously through the tail vein two hours before and two and four hours after receiving the tumor cell inoculation. Controls were similarly injected, but with 20 mM Hepes, 10 mM CaCl2, pH 7.8 aqueous solution. Additional controls were treated with either one intravenous injection of 15 units of heparin (Elkins-Sinn, Cherry Hill, N.J.) or 2 units of Bothrops atrox venom (Atroxin, Sigma, St. Louis, Mo.) in 0.2 ml of saline given 1 hour before tumor inoculation.

Setting [1] is: C57BL/6J mice, T241 cells i.v., killed 20 days later.

For heparin, under setting [1], the “Percentage of Mice with Tumors, Lung” value is on record as 100 Percentage and the “Percentage of Mice with Tumors, Mediastinal” value amounted to 80 Percentage. The “Lung Tumors per Mouse, Median” value (C57BL/6J mice, excluding mice without lung tumors) is given as 5. The “Diameter of Lung Tumors” value (C57BL/6J mice, mean and S.E.M., excluding mice without lung tumors) turned out to be 2.2 ± 0.1 mm. Further, the “antimetastatic effect on lung and mediastinal tumors (in words)” value (T241 sarcoma cells i.v. in mice) is reported as “reduced only slightly”. Further, the “antimetastatic effect at much higher doses given more frequently” value (compared with the extract) is listed as “could not be reproduced”.
